Source: paper PMC5662925, “Selective Targeting of Bromodomains of the Bromodomain-PHD Fingers Family Impairs Osteoclast Differentiation” (ACS Chemical Biology, 2017)

Key:
[1] = tested on: MMP9 secretion by human RANKL-induced osteoclasts; assay: MMP9 ELISA of human osteoclast supernatant; format: cell-based; details: 1.25 μM, 7 days or 11 days
BRD4(1) = BRD4(1) (Homo sapiens, UniProt O60885); assay: Temperature shift assay (ΔTm); format: binding; details: 10 µM compound
BRPF2 = target: T1, BRPF2 (Homo sapiens, UniProt O95696); assay: Isothermal titration calorimetry (ITC); format: binding; details: ITC data
T1 construct: All recombinant bromodomains were expressed as described in Filippakopoulos et al; made in house
T1 sequence (O95696 562-666 limits assumed): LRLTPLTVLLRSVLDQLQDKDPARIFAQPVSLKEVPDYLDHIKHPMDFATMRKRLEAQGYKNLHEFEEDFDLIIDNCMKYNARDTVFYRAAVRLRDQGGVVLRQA

[2] = tested on: primary murine bone marrow cells differentiated with RANKL; assay: Murine osteoclast differentiation, TRAP stain; format: cell-based, mouse
Source text: Epigenetic mechanisms play an important role in patterning and differentiation processes, and BRPF and its associated HATs have been particularly associated with differentiation of hematopoietic cells. Given our interest in bone biology, and the hematopoietic origin of the osteoclast, we investigated the potential role of the targeted bromodomains in osteoclastogenesis in mouse and human cells. Bone marrow mononuclear cells were isolated from wild-type mice, cultivated for 5 days in the presence of CSF-1, and replated in the presence of RANKL for differentiation into osteoclasts,[28] either with DMSO as a control or with varying doses of the BRPF inhibitors. […] To understand the molecular basis for this observation, we investigated the expression of several osteoclast marker genes using qPCR. […] To further investigate other osteoclast-specific effects of the BRPF inhibitors on gene transcription, we profiled genome-wide expression with Illumina MouseWG-6 v2.0 Expression BeadChips at different time points.

[3] = tested on: osteoclast marker genes (TRAP, CATK, CA2, NFATC1, OC-STAMP) in murine BMCs; assay: qPCR of osteoclast marker genes in murine BMCs; format: cell-based, mouse; details: 10 ng/mL RANKL, 1 μM and 2 μM, 0-3 days
[4] = tested on: NFATC1 protein level in murine BMCs; assay: Western blot of NFATC1 in murine BMCs; format: cell-based, mouse; details: 10 ng/mL RANKL, 1 μM and 2 μM
Source text: Figure 5 BRPF1B binding partners and effect of BRPF bromodomain inhibition on gene transcription during mouse osteoclastogenesis. […] The color of the circle represents the absolute spectral counts observed for the prey proteins. The circle size indicates the quantitative enrichment of a prey across all baits tested while the estimated FDR for the interaction is shown as the color of the circle edge. (B) Inhibition of murine osteoclast differentiation by panBRPF bromodomain inhibition. […] Bar scale indicates 200 μm. […] Data were normalized to day 0 of RANKL treatment. […] LaminB1 was used as a loading control.
Murine osteoclast-like cells were PBS washed, homogenized and lysed in RIPA buffer (50 mM Tris-HCl, pH 7.4; 150 mM NaCl; 1% NP-40; 0.5% Na-deoxycholate; 0.1% SDS; 2 mM EDTA; 10 mM NaF) containing protease inhibitors (Pierce, according to manufacturer’s specifications) with a 1 mL syringe and a 23-gauge needle. After centrifugation at 15 000 rpm at 4 °C for 10 min, supernatants were frozen at −80 °C. Protein concentrations were assayed using a Pierce BCA Kit, and 30 μg of protein per lane was subjected on 10% SDS gel. […] Absorbance was measured at 440 nm.

[5] = tested on: murine monocytic RAW246.7 cells; assay: Proliferation / cell count of RAW cells; format: cell-based, mouse; details: 72 h treatment, 10 µM, n = 4, t-test p = 0.73
Procedure: Supplementary Figure 4: Inhibition of murine osteoclast differentiation. A) TRAP stain of primary murine bone marrow cells (BMCs) differentiated into osteoclasts for 3 days with RANKL plus either the treatment with DMSO or NIL57 at 1 µM. Bar scale indicates 200 µm. […]
treated bone marrow cells after 1, 2 and 3 days of differentiation as compared to bone marrow cells before RANKL treatment start. C.) Count of RAW cells after 72 h treatment […]
content of primary mouse BMCs treated for 0, 1, 2 and 3 days with either without or with 1

[6] = tested on: human osteoclast-like cells on bone mineral substrate; assay: Bone resorption, Osteosurface assay (hydroxyapatite); format: cell-based
Source text: Dentine pits were imaged with confocal microscopy.

[7] = tested on: RANKL-induced expression of Ppap2a and SphK1; assay: Microarray genome-wide expression in murine BMCs; format: cell-based, mouse; details: 2 μM
Procedure: (A) Heat map of the top 25 significant differentially expressed genes between DMSO and OF-1-treated BMCs based on sorted average p-value for the time points 48 and 72 h. Red indicates higher; blue indicates lower expression. See also, Supporting Information Figures 3 and 4.
Murine bone marrow stem cells were differentiated into osteoclast-like cells as described above. Cells were PBS-washed and lysed in RLT-Buffer (including 2-Mercaptoethanol; Qiagen, UK), and RNA was isolated via RNeasy Plus Mini Kit (Quiagen, UK). After confirmation of RNA quality (RIN = 2 ± 0.1), cDNA synthesis of approximately 1000 ng of RNA with a High Capacity cDNA Reverse Transcription Kit (Applied Biosystems, UK) was carried out. A total of 500 ng/μL cDNA was subjected to MouseWG-6 v2.0 Expression BeadChips (Illumina) at the Department of Pathology, University of Cambridge. Microarray data are available in the ArrayExpress database (www.ebi.ac.uk/arrayexpress) under accession number E-MTAB-4155. Gene expression data underwent log2 transformation and quantile normalization. Genes were filtered based on their variation across the experiments, i.e., excluding genes with a standard deviation of expression lower than 0.1. For genes with multiple probes, only the highest variable probe was selected for further analysis. […]

[8] = tested on: human osteoclast-like cells on dentine slices; assay: Bone resorption on dentine slices; details: 1 μM
[9] = tested on: human primary monocytes (PBMCs) differentiated with RANKL; assay: Human osteoclast differentiation (TRAP-positive multinucleated cells)

ΔTm at 10 µM (BRD4(1)) [°C]	weaker potency for BRPF2 (vs BRPF1B) (BRPF2) [fold]	SMILES	MMP9 secretion [1]	number of multinucleated TRAP positive cells [2]	expression of osteoclast marker genes (qPCR) [3]	NFATC1 protein level [4]	Count of RAW cells vs DMSO [5]	pit formation on hydroxyapatite (Osteosurface assay) [6]	RANKL-induced expression of Ppap2a and SphK1 [7]	resorption of dentine [8]	fusion into multinucleated osteoclast-like cells [9]
–	–	COc1ccccc1C(=O)Nc1cc2c(cc1N1CCCC1)n(C)c(=O)n2C [PFI-4]	significant reductions	–	–	–	–	–	–	–	–
2.1	5	COc1cc2c(cc1NS(=O)(=O)c1ccc(Br)cc1C)n(C)c(=O)n2C [OF-1]	significant reductions	significant reductions	significant reductions	strong down-regulation	no significant difference	significant reduction	significantly down-regulated	complete block	completely suppress
